Measurements reported in PubChem BioAssay AID2060886 (Molecular Pharmacology Branch, DTP, NCI, 2025).

Test system: 653999-131-R-J2-PDC complex spheroids, growth inhibition
Test: Anticancer human tumor 653999-131-R-J2-PDC patient-derived lung adenocarcinoma cell line growth inhibition [RAS]
Settings: for IC50: curve of first compound; for viability, T/C: stronger effect = lower value
Procedure, shortened: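 Multi-cell-type spheroids: tumor cells plus HUVEC endothelial cells and mesenchymal stem cells. RAS-pathway inhibitors were combined with targeted agents, each dosed in half-log steps down from clinical Cmax, or from 10 microM when Cmax was unknown.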

[1] = second compound 0.0316 µM, first compound 0.0316 µM
[2] = second compound 0.0316 µM, first compound 0.1 µM
[3] = second compound 0.0316 µM, first compound 0.316 µM
[4] = second compound 0.0316 µM, first compound 1 µM
[5] = second compound 0.1 µM, first compound 0.0316 µM
[6] = second compound 0.1 µM, first compound 0.1 µM
[7] = second compound 0.1 µM, first compound 0.316 µM
[8] = second compound 0.1 µM, first compound 1 µM
[9] = second compound 0.316 µM, first compound 0.0316 µM
[10] = second compound 0.316 µM, first compound 0.1 µM
[11] = second compound 0.316 µM, first compound 0.316 µM
[12] = second compound 0.316 µM, first compound 1 µM
[13] = second compound 1 µM, first compound 0.0316 µM
[14] = second compound 1 µM, first compound 0.1 µM
[15] = second compound 1 µM, first compound 0.316 µM
[16] = second compound 1 µM, first compound 1 µM
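Further: spheroids exposed to the agents for seven days before the readout.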

Work on `NC1c2ccccc2OC12CCN(c1cnc3c(N4CCCc5ncccc54)n[nH]c3n1)CC2` (stereo unspecified) + C=CC(=O)N1CCN(c2nc(OCC3CCCN3C)nc3c(F)c(-c4nc(N)cc(C)c4C(F)(F)F)c(Cl)cc23)C(C)C1 yielded an IC50 (second compound 0.00316 µM) of over 10000 nM, an IC50 (second compound 0.01 µM) of over 10000 nM and an IC50 (second compound 0.0316 µM) of over 10000 nM. The IC50 (second compound 0.1 µM) was over 10000 nM, the IC50 (second compound 0.316 µM) was over 10000 nM and the IC50 (second compound 1 µM) was over 10000 nM. It also gave a viability, T/C (second compound 0.00316 µM, first compound 0.0316 µM) of 69.5%, a viability, T/C (second compound 0.00316 µM, first compound 0.1 µM) of 70.1% and a viability, T/C (second compound 0.00316 µM, first compound 0.316 µM) of 80.6%. It also gave a viability, T/C (second compound 0.00316 µM, first compound 1 µM) of 79.7%, a viability, T/C (second compound 0.00316 µM, first compound 3.16 µM) of 70.5% and a viability, T/C (second compound 0.00316 µM, first compound 10 µM) of 64.6%. For the same molecule, the viability, T/C (second compound 0.01 µM, first compound 0.0316 µM) was 78.4%, the viability, T/C (second compound 0.01 µM, first compound 0.1 µM) was 75.2% and the viability, T/C (second compound 0.01 µM, first compound 0.316 µM) was 78.5%. It also gave a viability, T/C (second compound 0.01 µM, first compound 1 µM) of 89.3%, a viability, T/C (second compound 0.01 µM, first compound 3.16 µM) of 68.6% and a viability, T/C (second compound 0.01 µM, first compound 10 µM) of 69.9%. The viability, T/C [1] was 76.5%, the viability, T/C [2] was 77.7% and the viability, T/C [3] was 82.5%. For the same molecule, the viability, T/C [4] was 67.8%, the viability, T/C (second compound 0.0316 µM, first compound 3.16 µM) was 86.4% and the viability, T/C (second compound 0.0316 µM, first compound 10 µM) was 81.6%. It also gave a viability, T/C [5] of 97.8%, a viability, T/C [6] of 75% and a viability, T/C [7] of 70.2%. The viability, T/C [8] was 83.2%, the viability, T/C (second compound 0.1 µM, first compound 3.16 µM) was 76.6% and the viability, T/C (second compound 0.1 µM, first compound 10 µM) was 73.3%. It also gave a viability, T/C [9] of 86%, a viability, T/C [10] of 89.8% and a viability, T/C [11] of 84.8%. The viability, T/C [12] was 65.5%, the viability, T/C (second compound 0.316 µM, first compound 3.16 µM) was 88.2% and the viability, T/C (second compound 0.316 µM, first compound 10 µM) was 73.2%. For the same molecule, the viability, T/C [13] was 76.6%, the viability, T/C [14] was 67.2% and the viability, T/C [15] was 87.9%. The viability, T/C [16] was 72.9%, the viability, T/C (second compound 1 µM, first compound 3.16 µM) was 85% and the viability, T/C (second compound 1 µM, first compound 10 µM) was 66.3%.
With `Cc1nc(N2CCC3(CC2)COC(C)C3N)c(CO)nc1Sc1ccnc(N)c1Cl` (stereo unspecified) + CCn1c(-c2cc(N3CCN(C)CC3)cnc2C(C)OC)c2c3cc(ccc31)-c1csc(n1)CC(NC(=O)C1CC1C)C(=O)N1CCCC(N1)C(=O)OCC(C)(C)C2 the IC50 (second compound 0.000949 µM) was over 10000 nM, the IC50 (second compound 0.003 µM) was over 10000 nM and the IC50 (second compound 0.00949 µM) was under 31.6 nM. It also gave an IC50 (second compound 0.03 µM) of under 31.6 nM, an IC50 (second compound 0.0949 µM) of under 31.6 nM and an IC50 (second compound 0.3 µM) of under 31.6 nM. It also gave a viability, T/C (second compound 0.000949 µM, first compound 0.0316 µM) of 80.8%, a viability, T/C (second compound 0.000949 µM, first compound 0.1 µM) of 91.1% and a viability, T/C (second compound 0.000949 µM, first compound 0.316 µM) of 76.1%. The viability, T/C (second compound 0.000949 µM, first compound 1 µM) was 80.9%, the viability, T/C (second compound 0.000949 µM, first compound 3.16 µM) was 64.2% and the viability, T/C (second compound 0.000949 µM, first compound 10 µM) was 76.8%. The viability, T/C (second compound 0.003 µM, first compound 0.0316 µM) was 60.9%, the viability, T/C (second compound 0.003 µM, first compound 0.1 µM) was 47.7% and the viability, T/C (second compound 0.003 µM, first compound 0.316 µM) was 64%. For the same molecule, the viability, T/C (second compound 0.003 µM, first compound 1 µM) was 54.8%, the viability, T/C (second compound 0.003 µM, first compound 3.16 µM) was 47% and the viability, T/C (second compound 0.003 µM, first compound 10 µM) was 54.1%. It also gave a viability, T/C (second compound 0.00949 µM, first compound 0.0316 µM) of 43.1%, a viability, T/C (second compound 0.00949 µM, first compound 0.1 µM) of 34.9% and a viability, T/C (second compound 0.00949 µM, first compound 0.316 µM) of 37.4%. The viability, T/C (second compound 0.00949 µM, first compound 1 µM) was 41.1%, the viability, T/C (second compound 0.00949 µM, first compound 3.16 µM) was 24.6% and the viability, T/C (second compound 0.00949 µM, first compound 10 µM) was 29.7%. For the same molecule, the viability, T/C (second compound 0.03 µM, first compound 0.0316 µM) was 36.7%, the viability, T/C (second compound 0.03 µM, first compound 0.1 µM) was 30.2% and the viability, T/C (second compound 0.03 µM, first compound 0.316 µM) was 21%. The viability, T/C (second compound 0.03 µM, first compound 1 µM) was 19.1%, the viability, T/C (second compound 0.03 µM, first compound 3.16 µM) was 17.3% and the viability, T/C (second compound 0.03 µM, first compound 10 µM) was 15.9%. For the same molecule, the viability, T/C (second compound 0.0949 µM, first compound 0.0316 µM) was 21.4%, the viability, T/C (second compound 0.0949 µM, first compound 0.1 µM) was 27.6% and the viability, T/C (second compound 0.0949 µM, first compound 0.316 µM) was 14.4%. It also gave a viability, T/C (second compound 0.0949 µM, first compound 1 µM) of 14.2%, a viability, T/C (second compound 0.0949 µM, first compound 3.16 µM) of 11% and a viability, T/C (second compound 0.0949 µM, first compound 10 µM) of 11.9%. For the same molecule, the viability, T/C (second compound 0.3 µM, first compound 0.0316 µM) was 23.4%, the viability, T/C (second compound 0.3 µM, first compound 0.1 µM) was 18.5% and the viability, T/C (second compound 0.3 µM, first compound 0.316 µM) was 20%. For the same molecule, the viability, T/C (second compound 0.3 µM, first compound 1 µM) was 12.7%, the viability, T/C (second compound 0.3 µM, first compound 3.16 µM) was 10.1% and the viability, T/C (second compound 0.3 µM, first compound 10 µM) was 7.03%.
Work on `O=C(c1ccc(F)c(F)c1Nc1ccc(I)cc1F)N1CC(O)([C@@H]2CCCCN2)C1` + C#Cc1c(F)ccc2cc(O)cc(-c3ncc4c(N5CC6CCC(C5)N6)nc(OCC56CCCN5CC(F)C6)nc4c3F)c12 yielded an IC50 (second compound 0.0316 µM) of 92.7 nM, an IC50 (second compound 0.1 µM) of 54.7 nM and an IC50 (second compound 0.316 µM) of 106 nM. The IC50 (second compound 1 µM) was under 3.16 nM, the IC50 (second compound 3.16 µM) was under 3.16 nM and the IC50 (second compound 10 µM) was under 3.16 nM. The viability, T/C (second compound 0.0316 µM, first compound 0.00316 µM) was 88.1%, the viability, T/C (second compound 0.0316 µM, first compound 0.01 µM) was 90.7% and the viability, T/C [1] was 60.7%. It also gave a viability, T/C [2] of 52.7%, a viability, T/C [3] of 25.6% and a viability, T/C [4] of 7.56%. It also gave a viability, T/C (second compound 0.1 µM, first compound 0.00316 µM) of 70.9%, a viability, T/C (second compound 0.1 µM, first compound 0.01 µM) of 70.6% and a viability, T/C [5] of 63%. It also gave a viability, T/C [6] of 34.6%, a viability, T/C [7] of 24% and a viability, T/C [8] of 8.72%. The viability, T/C (second compound 0.316 µM, first compound 0.00316 µM) was 62.3%, the viability, T/C (second compound 0.316 µM, first compound 0.01 µM) was 60.1% and the viability, T/C [9] was 66.6%. The viability, T/C [10] was 49.9%, the viability, T/C [11] was 23.8% and the viability, T/C [12] was 8.41%. It also gave a viability, T/C (second compound 1 µM, first compound 0.00316 µM) of 50.1%, a viability, T/C (second compound 1 µM, first compound 0.01 µM) of 39.8% and a viability, T/C [13] of 51.2%. It also gave a viability, T/C [14] of 43.4%, a viability, T/C [15] of 19.1% and a viability, T/C [16] of 6.71%. It also gave a viability, T/C (second compound 3.16 µM, first compound 0.00316 µM) of 34.5%, a viability, T/C (second compound 3.16 µM, first compound 0.01 µM) of 31.5% and a viability, T/C (second compound 3.16 µM, first compound 0.0316 µM) of 31.6%. The viability, T/C (second compound 3.16 µM, first compound 0.1 µM) was 21.4%, the viability, T/C (second compound 3.16 µM, first compound 0.316 µM) was 12.8% and the viability, T/C (second compound 3.16 µM, first compound 1 µM) was 5.39%. The viability, T/C (second compound 10 µM, first compound 0.00316 µM) was 26%, the viability, T/C (second compound 10 µM, first compound 0.01 µM) was 22.1% and the viability, T/C (second compound 10 µM, first compound 0.0316 µM) was 11.9%. It also gave a viability, T/C (second compound 10 µM, first compound 0.1 µM) of 11.9%, a viability, T/C (second compound 10 µM, first compound 0.316 µM) of 8.98% and a viability, T/C (second compound 10 µM, first compound 1 µM) of 2.85%.
